6 compounds from PubChem BioAssay (NCI) can be followed below.

Test systems include UACC-257 melanoma; PC-3 prostate; NCI-H226 lung; EKVX NSCLC; LOX IMVI melanoma; OVCAR-8 ovarian; SF-268 CNS; MDA-MB-435; CCRF-CEM leukemia; RPMI-8226 leukemia.
What all share (experiment): growth of human tumour cells (NCI), 48 h

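Growth conditions: 96-well plates. Treatment: test compound, 48 hours, 5 concentrations. Analysis: linear interpolation between bracketing concentrations; unreached endpoints set to highest concentration. Definition used: TGI = concentration required for complete inhibition of growth.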 Bounds are passed on as bounds.

Consider `Cc1ccc(-c2nc(C)c(C(=O)Nc3ccc(Cl)cc3)s2)cc1`, for which the TGI is more than 100 µM in the assay with UACC-257 melanoma; more than 100 µM with PC-3 prostate; 48.5 µM in the assay on NCI-H226 lung; more than 100 µM in the assay with EKVX NSCLC; more than 100 µM in the assay with LOX IMVI melanoma; 36.9 µM with OVCAR-8 ovarian. The TGI in the assay with SF-268 CNS is 91.8 µM; with MDA-MB-435 it was more than 100 µM; in the assay on CCRF-CEM leukemia, more than 100 µM; in the assay with RPMI-8226 leukemia it was more than 100 µM.

For the compound `O=C(O)c1ccccc1NC(c1ccccc1)c1ccc2cccnc2c1O` (stereo not given), the TGI was 43.9 µM in the assay on UACC-257 melanoma; more than 88.8 µM in the assay on PC-3 prostate; more than 28.5 µM with NCI-H226 lung; more than 47.5 µM in the assay with EKVX NSCLC; 43.2 µM with LOX IMVI melanoma; more than 100 µM in the assay with OVCAR-8 ovarian. Besides, the TGI was more than 43.5 µM in the assay on SF-268 CNS, more than 66.9 µM in the assay with MDA-MB-435, more than 22.7 µM in the assay with CCRF-CEM leukemia and 16.9 µM with RPMI-8226 leukemia.

Consider `Cc1ccc(C2=Nc3cc(C)c(Cl)cc3S(=O)(=O)NN2)cc1`, for which the TGI with UACC-257 melanoma, with PC-3 prostate, in the assay with NCI-H226 lung, with EKVX NSCLC, in the assay on LOX IMVI melanoma and in the assay on OVCAR-8 ovarian was more than 100 µM each time. The TGI with SF-268 CNS, in the assay on MDA-MB-435, in the assay with CCRF-CEM leukemia and in the assay on RPMI-8226 leukemia was more than 100 µM in each case.

In the case of `CCOC(=O)C1(C(N)=O)C(=O)c2ccncc2C1=O` (stereo not given), the TGI in the assay with UACC-257 melanoma, in the assay with PC-3 prostate, in the assay with NCI-H226 lung, in the assay on EKVX NSCLC, with LOX IMVI melanoma and in the assay on OVCAR-8 ovarian was more than 100 µM each time. For the same compound, the TGI in the assay on SF-268 CNS, with MDA-MB-435, with CCRF-CEM leukemia and in the assay on RPMI-8226 leukemia was more than 100 µM throughout.

`Cc1c2c(c(C)n1-c1ccccc1)C(=O)N(CCCCN1CCN(c3ccccc3)CC1)C2=O`: the TGI in the assay on UACC-257 melanoma is 22.2 µM; in the assay on PC-3 prostate, 39.5 µM; in the assay with NCI-H226 lung, 40.3 µM; in the assay with EKVX NSCLC, 65.7 µM; with LOX IMVI melanoma, 23.5 µM; in the assay on OVCAR-8 ovarian it was 31.4 µM. Besides, the TGI in the assay with SF-268 CNS is more than 100 µM; in the assay on MDA-MB-435, 40.8 µM; with CCRF-CEM leukemia it was 26.1 µM; in the assay on RPMI-8226 leukemia, 47.3 µM.

Turning to `C=CCn1c(=O)c2ccccc2[n+]2c(C)c(C(=O)OCC)sc12`, the TGI with UACC-257 melanoma, in the assay on PC-3 prostate, in the assay on NCI-H226 lung, with EKVX NSCLC, with LOX IMVI melanoma and in the assay with OVCAR-8 ovarian was more than 100 µM in each case. Also, the TGI in the assay with SF-268 CNS, with MDA-MB-435, in the assay on CCRF-CEM leukemia and in the assay on RPMI-8226 leukemia was more than 100 µM throughout.
